According to patent US20170335336A1, “USE OF A SELECTABLE MARKER GENE IN SUGAR BEET PROTOPLASTS TRANSFORMATION METHOD AND SYSTEM” (SESVanderHave N.V., priority 2014, published 2017):

What was measured:
[1] = system: wild type sugar beet protoplasts; assay: killing curve for optimal herbicide concentration; type: cell-based, sugar beet (Beta vulgaris L.); conditions: killing curve (Table 1 and Table 2)
Description: The optimal herbicide (ALS inhibitor) concentration used in the method according to the invention was determined from a killing curve concentration for two preferred ALS inhibitors (Foramsulfuron and Ethoxysulfuron) and was established as follows: • To use optimal concentration of herbicide for selection of transformed sugar beet protoplasts, killing curve was developed on wild type sugar beet protoplasts with the following concentrations (Table 1 and Table 2). Based on the results obtained from the killing curve experiments concentration of 5×10^−9M for foramsulfuron and 5×10^−11M for ethoxysulfuron were selected for using with transformed sugar beet protoplasts with pS189 plasmid DNA carrying the mutated BvALS nucleotide sequence.

[2] = system: non-transformed protoplasts; assay: control experiment: non-transformed protoplasts on selection media; type: cell-based, sugar beet (Beta vulgaris L.)
Description: Transformation experiments were performed using plasmid DNA (pS189) according to the standard PEG transformation system under two selection media containing 5×10^−9M foramsulfuron (ALF) and 5×10^−11M ethoxysulfuron (ALE) concentrations. The selection of only the transformed protoplasts were evidenced by the number of calli recovered from each transformation experiment. […] So far seven transformation experiments were performed for ALF and six experiments for ALE. From ALF experiments, about 1799 buds and 89 regenerated plantlets were obtained (Table 3).

| SMILES | concentration selected from killing curve experiments for selection of transformed protoplasts [1] | calli / survival of cells on selection medium ([2]; selection medium containing 5×10^−11M ethoxysulfuron (ALE)) | calli / survival of cells on selection medium ([2]; selection medium containing 5×10^−9M foramsulfuron (ALF)) |
| --- | --- | --- | --- |
| CCOc1ccccc1OS(=O)(=O)NC(=O)Nc1nc(OC)cc(OC)n1 [ethoxysulfuron] | 0.05 nM | did not result in any calli or survival of cells |  |
| COc1cc(OC)nc(NC(=O)NS(=O)(=O)c2cc(NC=O)ccc2C(=O)N(C)C)n1 [foramsulfuron] | 5 nM |  | did not result in any calli or survival of cells |
